Experiments:
[1] = Cytotoxicity in mouse NMuMG cells assessed as cell growth at 20 uM after 72 hrs by colorimetry; assay type: cell-based; conditions: read-out: Activity
[2] = Cytotoxicity in mouse NMuMG cells after 72 hrs by colorimetry; assay type: cell-based
[3] = Antiproliferative activity against mouse B16F0 cells assessed as cell growth at 20 uM after 72 hrs by colorimetry; assay type: functional; conditions: B16F0, 72 h, read-out: Activity
[4] = Antiproliferative activity against mouse LM3 cells assessed as cell growth at 20 uM after 72 hrs by colorimetry; assay type: functional; conditions: LM3, 72 h, read-out: Activity
HeLa [5] = assay: Antiproliferative activity against human HeLa cells after 72 hrs by colorimetry; assay type: functional, cell-based
HeLa [6] = assay: Antiproliferative activity against human HeLa cells assessed as cell growth at 20 uM after 72 hrs by colorimetry; assay type: functional; conditions: read-out: Activity
[7] = Antiproliferative activity against mouse LM3 cells after 72 hrs by colorimetry; assay type: functional, cell-based; conditions: LM3, 72 h
[8] = Ratio of IC50 for mouse NMuMG cells to IC50 for mouse B16F0 cells
HeLa [9] = assay: Ratio of IC50 for mouse NMuMG cells to IC50 for human HeLa cells
MCF7 [10] = assay: Antiproliferative activity against human MCF7 cells assessed as cell growth at 20 uM after 72 hrs by colorimetry; assay type: functional; conditions: MCF7, 72 h, read-out: Activity
[11] = Ratio of IC50 for mouse NMuMG cells to IC50 for mouse […] cells
[12] = Antiproliferative activity against mouse B16F0 cells after 72 hrs by colorimetry; assay type: functional, cell-based; conditions: B16F0, 72 h
MCF7 [13] = assay: Ratio of IC50 for mouse NMuMG cells to IC50 for human MCF7 cells
MCF7 [14] = assay: Antiproliferative activity against human MCF7 cells after 72 hrs by colorimetry; assay type: functional, cell-based; conditions: MCF7, 72 h

| SMILES | viability at 72 h, 20 µM [1] [%] | IC50 [2] [µM] | growth at 20 µM [3] [%] | growth at 20 µM [4] [%] | IC50 (HeLa [5]) [µM] | growth at 20 µM (HeLa [6]) [%] | IC50 [7] [µM] | Ratio IC50 [8] | Ratio IC50 (HeLa [9]) | growth at 20 µM (MCF7 [10]) [%] | Ratio IC50 [11] | IC50 [12] [µM] | Ratio IC50 (MCF7 [13]) | IC50 (MCF7 [14]) [µM] |
| --- | --- | --- | --- | --- | --- | --- | --- | --- | --- | --- | --- | --- | --- | --- |
| CCOc1ccc2nc(SC[C@@]3(C)[C@H](C(=O)OC)N4C(=O)[C@H](Cl)[C@H]4S3(=O)=O)sc2c1 | 8 |  |  |  |  |  |  |  |  |  |  |  |  |  |
| COC(=O)[C@@H]1N2C(=O)[C@H](Cl)[C@H]2S[C@@]1(C)CSc1nc2ccccc2s1 | 55 | 36 | 48 | 55 | 18 | 44 | 20 | 2 | 2 | 66 | 1.8 | 18 |  |  |
| COC(=O)[C@@H]1N2C(=O)[C@H](Cl)[C@H]2S[C@@]1(C)CSc1nc(-c2ccccc2)c(-c2ccccc2)o1 | 55 | 32 | 65 | 65 | 13 | 27 |  |  | 2.5 | 87 |  |  |  |  |
| COC(=O)[C@@H]1N2C(=O)[C@H](Cl)[C@H]2S[C@@]1(C)CSC1=NCCS1 | 65 | 41 | 71 | 54 | 19 | 48 | 20 |  | 2.2 | 87 | 2 |  |  |  |
| COC(=O)[C@@H]1N2C(=O)[C@H](Cl)[C@H]2S[C@@]1(C)CSc1nc2ccccc2o1 | 65 |  | 68 | 87 |  | 68 |  |  |  | 84 |  |  |  |  |
| COC(=O)[C@@H]1N2C(=O)C(Br)(Br)[C@H]2S(=O)(=O)[C@@]1(C)CCl | 35 |  |  |  |  |  |  |  |  |  |  |  |  |  |
| CCOc1ccc2nc(SC[C@]3(C)S[C@@H]4[C@@H](Cl)C(=O)N4[C@H]3C(=O)OC)sc2c1 | 64 | 43 | 52 | 49 | 24 | 56 | 24 | 1.6 | 1.8 | 65 | 1.8 | 27 |  |  |
| COC(=O)[C@@H]1N2C(=O)C(Br)(Br)[C@H]2S[C@@]1(C)CSc1nc(-c2ccccc2)c(-c2ccccc2)o1 | 55 | 31 | 38 | 35 | 7 | 7 | 14 | 2.8 | 4.4 | 27 | 2.2 | 11 | 1.7 | 18 |
